Measured values: patent US20240358669A1, “METHODS FOR TREATING PANCREATIC CANCER” (Olatec Therapeutics, Inc., priority 2022, published 2024)

What was measured:
[1] = tested on: KPC cells, a murine PDAC cell line; test: Orthotopic KPC pancreatic cancer model in mice, dapansutrile and gemcitabine combination (Example 2); type: in vivo, C57BL/6 male mice; settings: sacrifice after 21 days; gemcitabine 100 mg/kg i.p. every three days from day 10; dapansutrile diet; vs PBS vehicle (combination also vs monotherapies)
Method: Tumor-bearing mice were prepared according to Example 1 and monitored daily until the sacrifice after 21 days.
Mice treated with dapansutrile were fed with dapansutrile by the same protocol as described in Example 1.
Control mice received PBS
At sacrifice, tumor volume and tumor weight were assessed in the 4 groups of mice.

[2] = tested on: non-immune cells; test: Effect of dapansutrile on non-immune cell proliferation
[3] = healthy subjects, oral; cited from earlier work
[4] = target: NLRP3 inflammasome (Homo sapiens, UniProt Q96P20); settings: cited from earlier work
Sequence of NLRP3 inflammasome (Q96P20 whole entry): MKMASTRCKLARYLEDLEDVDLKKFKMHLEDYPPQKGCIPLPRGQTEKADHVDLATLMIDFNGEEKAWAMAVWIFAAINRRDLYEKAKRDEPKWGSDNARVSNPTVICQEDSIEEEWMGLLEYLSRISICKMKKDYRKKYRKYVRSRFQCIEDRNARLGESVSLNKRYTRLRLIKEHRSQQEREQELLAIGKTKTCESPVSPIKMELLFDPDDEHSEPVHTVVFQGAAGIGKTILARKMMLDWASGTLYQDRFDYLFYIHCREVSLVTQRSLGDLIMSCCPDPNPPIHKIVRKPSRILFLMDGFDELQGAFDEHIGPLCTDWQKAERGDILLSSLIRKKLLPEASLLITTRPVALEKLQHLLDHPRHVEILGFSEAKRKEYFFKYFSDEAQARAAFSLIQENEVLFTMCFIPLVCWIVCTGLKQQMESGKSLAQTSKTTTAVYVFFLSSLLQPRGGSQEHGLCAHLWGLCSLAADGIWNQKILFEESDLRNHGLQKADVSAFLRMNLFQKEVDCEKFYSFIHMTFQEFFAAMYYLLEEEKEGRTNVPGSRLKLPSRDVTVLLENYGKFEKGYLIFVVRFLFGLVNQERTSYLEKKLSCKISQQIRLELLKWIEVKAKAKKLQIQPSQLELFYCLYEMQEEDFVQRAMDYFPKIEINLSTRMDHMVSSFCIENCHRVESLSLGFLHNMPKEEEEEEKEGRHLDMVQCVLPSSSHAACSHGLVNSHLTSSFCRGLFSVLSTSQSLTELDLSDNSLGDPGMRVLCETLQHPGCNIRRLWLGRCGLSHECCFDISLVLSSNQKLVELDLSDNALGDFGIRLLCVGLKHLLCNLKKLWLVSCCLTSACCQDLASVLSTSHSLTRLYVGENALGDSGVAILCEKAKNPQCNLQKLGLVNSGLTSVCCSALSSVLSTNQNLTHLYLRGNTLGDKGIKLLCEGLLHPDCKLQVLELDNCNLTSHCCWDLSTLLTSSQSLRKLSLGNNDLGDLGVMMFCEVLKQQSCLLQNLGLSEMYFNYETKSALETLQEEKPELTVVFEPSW

[5] = tested on: KPC cells, a murine PDAC cell line; test: Orthotopic KPC pancreatic cancer model in mice, dapansutrile diet (Example 1); type: in vivo, C57BL/6 male mice; settings: dapansutrile diet 7.5 g/kg food ad libitum from surgery, sacrifice after 21 days, vs standard diet
Method: C57BL/6 male mice (8 weeks old) were purchased from Jackson Laboratories (Bar Harbor, ME). Mice were anesthetized and following opening the abdominal cavity, the tip of pancreatic tail was gently grasped, and the pancreas/spleen was externalized in a lateral direction, exposing the entire pancreatic body and spleen. 100,000 KPC cells, a murine PDAC cell line, were mixed 1:1 with Matrigel (VF=20 μl) and injected into the tail of the pancreas. The pancreas was then gently internalized with blunt forceps and the abdominal muscle layer, and the skin was closed separately with absorbable sutures.
Following the initial injections of KPC cells, tumor bearing mice were monitored daily until the sacrifice after 21 days. At sacrifice, tumor volume and weight were assessed in the vehicle (n=16) and OLT1177® (dapansutrile)-treated mice (n=16).
From the date of surgery, mice were treated with oral dapansutrile via feed pellets ad libitum. The composition of the food is the standard mouse chow enriched with 7.5 gr of dapansutrile per kilogram of food. […]
At sacrifice, tumor volume in different groups was calculated using the modified ellipsoidal formula V=(LW^2)/2, where L is the length of the longest tumor dimension parallel to the skin containing the tumor midpoint, W is the length of the tumor dimension perpendicular to L and parallel to the skin, and V is tumor volume in cubic millimeters (mm^3).

[6] = tested on: COX2/PGE2; test: Effect of dapansutrile on COX2/PGE2; settings: immunosuppressive pathway in PDAC

Compound	tumor weight [1]	tumor volume [1]	non-immune cells proliferation [2]	safety when orally administered [3]	inhibition of the NLRP3 inflammasome [4]	tumor volume ([5]; p<0.0001)	tumor weight ([5]; p<0.01)	COX2/PGE2 [6]
Nc1ccn([C@@H]2O[C@H](CO)[C@@H](O)C2(F)F)c(=O)n1 [gemcitabine, Gemcitabine, reference compound]	significant reduction	–	–	–	–	–	–	–
CS(=O)(=O)CCC#N [dapansutrile, 3-methanesulfonyl-propionitrile]	significant reduction	significant reduction	no effect	safe	selectively inhibit	reduced tumor volume	reduced tumor weight	significant reduction
